Columns and labels:
Balb/C mice = assay: Cecal ligation and puncture (CLP) polymicrobial sepsis, survival (protocol A); assay type: in vivo
Experimental: In vivo studies were performed in accordance with National Institutes of Health guidelines and with the approval of the North Shore-Long Island Jewish Health System’s Institutional Animal Care and Use Committee (IACUC). In mice, polymicrobial sepsis was induced by surgical ligation and perforation of the cecum, a widely used technique known as CLP. Briefly, male BALB/c mice (7–8 weeks old, 20–25 g) were anesthetized with a mixture of ketamine (100 mg/kg) and xylazine (8 mg/kg) intramuscularly, and a 15 mm midline incision was made to expose the cecum. After ligation of the cecum with a 6.0 silk suture below the junction of the ileo–cecal valve, the ligated cecal stump was perforated once with a 22-gauge needle. […] Survival was monitored twice daily for 2 weeks, at which time survivors were killed (CO2 asphyxia). […] Survival was monitored twice daily after surgery. […]
Kaplan–Meier analysis was used to determine statistical significance of the differences in survival of mice. p ≦ 0.05 was considered significant. Values in the figures were expressed as mean(±)S.E.M. of two or three independent experiments, where each experimental point was derived from duplicates or triplicates. […]
Fig. 6 MECO-1 rescues mice from lethal sepsis. a Endotoxin. […] Survival was monitored daily for 2 weeks. […] Animals were monitored for survival for 14 days. […]

RAW 264.7 cells = assay: LPS-induced HMGB1 release by RAW 264.7 cells (western blot); assay type: cell-based, murine; conditions: LPS 100 ng/ml, peptide 10^-10 M, 16-20 hrs, four independent experiments, P < 0.01
Experimental: Murine macrophage-like RAW 264.7 cells were obtained from American Type Culture Collection, and were grown in Dulbecco’s Modified Eagle’s Medium (DMEM, Life Technologies) containing 10% (vol/vol) heat-inactivated fetal bovine serum (FBS, Hyclone Lab. Inc.), penicillin 100 U/ml, and streptomycin 100 μg/ml (BioWhittaker Inc.). Cells were suspended in medium and incubated in 24-well or 48-well tissue-culture plates overnight in a humidified incubator (37 °C, 5% CO2). Growth medium was removed and replaced by Opti-MEM I serum-free medium (Life Technologies) overnight. […]
The levels of HMGB1 in the culture medium or murine serum were measured by western immunoblotting as previously described.[30] […] The relative band intensity was quantified by using the NIH image 1.59 software. The levels of HMGB1 (expressed as % maximum effect) were calculated with reference to standard curves generated with purified rHMGB1 and expressed as mean ± SEM of four experiments.
Murine macrophage-like RAW 264.7 cells were incubated with LPS (100 ng/ml) in the absence or presence of MECO-1 or alpha-MSH at 10^-10 M. At 16-20 hrs after stimulation, aliquots of cell-free medium were examined. HMGB1 levels in the (conditioned) culture medium were expressed as mean ± SEM of four independent experiments with the peak level (obtained with LPS) set at 100%. […]

## alpha-melanocyte-stimulating hormone [alpha-MSH]
Balb/C mice; 5 mg/kg (high dose) i.p. twice daily, six doses starting 24 h post-surgery, n = 10, saline 15%
  survival at day 14 after CLP: around 50%
Balb/C mice; three experiments pooled, untreated 23% (9 of 39), alpha-MSH 15 of 22, MECO-1 42 of 64
  overall survival after CLP polymicrobial sepsis: 68%
RAW 264.7 cells
  LPS-induced HMGB-1 secretion: markedly reduced

Reference: paper PMC5684143, “New melanocortin-like peptide of E. coli can suppress inflammation via the mammalian melanocortin-1 receptor (MC1R): possible endocrine-like function for microbes of the gut” (NPJ Biofilms and Microbiomes, 2017)
